Values quoted from earlier work in US20100184765A1, “Protein Kinase Inhibitors and Methods for Using Thereof” (IRM LLC, priority 2007, published 2010).

Molecular target: Flt-1 (Homo sapiens, UniProt P17948)
Settings: VEGF binding to Flt-1, literature report

Flt-1, sequence (P17948 27-1338, species assumed): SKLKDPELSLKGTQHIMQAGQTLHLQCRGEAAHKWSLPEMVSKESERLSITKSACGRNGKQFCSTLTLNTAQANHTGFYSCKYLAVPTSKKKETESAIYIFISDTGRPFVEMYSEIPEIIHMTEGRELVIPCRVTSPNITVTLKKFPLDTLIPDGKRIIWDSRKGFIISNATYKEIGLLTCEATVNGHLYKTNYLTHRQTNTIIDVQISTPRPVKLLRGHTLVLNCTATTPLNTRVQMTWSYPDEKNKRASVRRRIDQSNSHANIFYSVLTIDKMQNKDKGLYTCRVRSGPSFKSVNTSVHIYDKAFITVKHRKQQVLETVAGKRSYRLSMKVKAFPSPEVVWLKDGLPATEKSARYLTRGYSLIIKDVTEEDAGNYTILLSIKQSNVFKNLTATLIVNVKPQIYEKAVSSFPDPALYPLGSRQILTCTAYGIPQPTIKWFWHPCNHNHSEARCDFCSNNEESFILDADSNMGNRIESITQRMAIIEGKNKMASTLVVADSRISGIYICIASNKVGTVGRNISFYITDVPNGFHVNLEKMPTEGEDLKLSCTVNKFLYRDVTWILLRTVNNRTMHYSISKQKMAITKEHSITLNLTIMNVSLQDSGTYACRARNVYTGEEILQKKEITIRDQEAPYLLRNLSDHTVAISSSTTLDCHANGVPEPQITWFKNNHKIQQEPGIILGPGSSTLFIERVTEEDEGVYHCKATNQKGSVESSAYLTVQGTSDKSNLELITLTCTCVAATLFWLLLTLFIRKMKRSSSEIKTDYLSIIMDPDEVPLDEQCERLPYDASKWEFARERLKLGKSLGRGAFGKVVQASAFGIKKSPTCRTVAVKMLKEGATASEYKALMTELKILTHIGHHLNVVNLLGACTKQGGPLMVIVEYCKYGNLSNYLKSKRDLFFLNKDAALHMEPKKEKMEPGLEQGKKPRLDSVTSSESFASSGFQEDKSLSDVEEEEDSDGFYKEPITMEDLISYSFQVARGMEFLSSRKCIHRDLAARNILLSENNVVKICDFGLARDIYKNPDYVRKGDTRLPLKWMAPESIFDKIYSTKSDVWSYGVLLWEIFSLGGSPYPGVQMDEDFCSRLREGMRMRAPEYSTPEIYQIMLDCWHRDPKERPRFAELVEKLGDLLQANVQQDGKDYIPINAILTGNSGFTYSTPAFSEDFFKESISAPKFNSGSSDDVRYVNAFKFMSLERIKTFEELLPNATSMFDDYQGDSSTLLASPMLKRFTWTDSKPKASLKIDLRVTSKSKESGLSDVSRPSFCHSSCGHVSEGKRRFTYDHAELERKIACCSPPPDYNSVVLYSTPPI

Substance: VEGF
- Kd: 20 pM
